Reference: ChEMBL document CHEMBL1201862, “PubChem BioAssay data set” (2004)
Blank lines part the entries; values can stand above or below the compound they belong to. Active and inactive are the calls of the source. Rule as the data show it, for most assays here: actives have a measured IC50 and inactives only a lower limit.

Columns and labels:
[1] = molecular target: Multidrug resistance protein CDR2 (Candida albicans (strain SC5314 / ATCC MYA-2876) (Yeast), UniProt P78595); experiment: inhibition of Nile Red efflux via Candida CDR2 – S. cerevisiae AD1-8u, singleplex, Cherry Pick1 hits, dose response (AID 588604); assay type: functional
Chain of Multidrug resistance protein CDR2 (P78595 whole entry): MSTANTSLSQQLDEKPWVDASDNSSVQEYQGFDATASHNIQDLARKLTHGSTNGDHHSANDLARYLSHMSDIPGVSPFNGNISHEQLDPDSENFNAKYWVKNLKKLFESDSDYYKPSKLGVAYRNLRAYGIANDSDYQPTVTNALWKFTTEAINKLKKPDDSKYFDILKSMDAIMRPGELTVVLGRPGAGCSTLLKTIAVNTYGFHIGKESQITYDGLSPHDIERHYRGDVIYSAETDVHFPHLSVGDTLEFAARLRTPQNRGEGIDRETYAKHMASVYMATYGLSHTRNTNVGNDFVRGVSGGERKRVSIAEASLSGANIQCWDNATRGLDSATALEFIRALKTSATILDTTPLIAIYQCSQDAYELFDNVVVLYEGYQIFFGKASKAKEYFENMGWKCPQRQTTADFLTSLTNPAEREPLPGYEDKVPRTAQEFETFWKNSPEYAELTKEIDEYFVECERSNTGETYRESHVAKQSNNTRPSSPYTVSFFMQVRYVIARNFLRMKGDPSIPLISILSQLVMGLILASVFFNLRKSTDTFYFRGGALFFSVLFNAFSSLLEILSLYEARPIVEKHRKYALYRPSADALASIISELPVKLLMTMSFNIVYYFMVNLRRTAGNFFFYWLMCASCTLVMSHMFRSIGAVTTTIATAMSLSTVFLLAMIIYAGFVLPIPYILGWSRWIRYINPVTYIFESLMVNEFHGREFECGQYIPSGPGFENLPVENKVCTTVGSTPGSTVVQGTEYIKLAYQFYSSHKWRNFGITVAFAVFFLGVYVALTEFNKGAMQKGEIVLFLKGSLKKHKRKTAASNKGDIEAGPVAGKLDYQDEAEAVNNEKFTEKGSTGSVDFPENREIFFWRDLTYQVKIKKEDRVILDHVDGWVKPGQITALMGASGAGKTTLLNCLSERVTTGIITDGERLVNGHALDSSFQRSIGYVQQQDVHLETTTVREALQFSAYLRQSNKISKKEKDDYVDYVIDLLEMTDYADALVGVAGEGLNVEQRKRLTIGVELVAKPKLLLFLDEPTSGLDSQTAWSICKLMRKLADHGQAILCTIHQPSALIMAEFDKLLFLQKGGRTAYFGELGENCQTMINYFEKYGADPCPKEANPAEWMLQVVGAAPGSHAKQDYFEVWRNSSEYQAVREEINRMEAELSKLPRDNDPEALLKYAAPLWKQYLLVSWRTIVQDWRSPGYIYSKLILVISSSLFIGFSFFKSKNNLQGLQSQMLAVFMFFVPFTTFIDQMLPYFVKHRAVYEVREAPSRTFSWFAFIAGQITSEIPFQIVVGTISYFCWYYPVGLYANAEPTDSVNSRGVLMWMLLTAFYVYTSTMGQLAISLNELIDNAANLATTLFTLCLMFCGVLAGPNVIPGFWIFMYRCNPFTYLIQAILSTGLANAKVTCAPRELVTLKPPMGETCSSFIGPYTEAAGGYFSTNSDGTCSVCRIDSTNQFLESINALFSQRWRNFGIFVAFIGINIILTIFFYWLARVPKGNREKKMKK

Ephrin type-A receptor 2 = Ephrin type-A receptor 2 (Homo sapiens, UniProt P29317); assay type: functional;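 also: EPHA2 tested as one member of a kinome-wide kinase panel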
Chain of Ephrin type-A receptor 2 (P29317 whole entry): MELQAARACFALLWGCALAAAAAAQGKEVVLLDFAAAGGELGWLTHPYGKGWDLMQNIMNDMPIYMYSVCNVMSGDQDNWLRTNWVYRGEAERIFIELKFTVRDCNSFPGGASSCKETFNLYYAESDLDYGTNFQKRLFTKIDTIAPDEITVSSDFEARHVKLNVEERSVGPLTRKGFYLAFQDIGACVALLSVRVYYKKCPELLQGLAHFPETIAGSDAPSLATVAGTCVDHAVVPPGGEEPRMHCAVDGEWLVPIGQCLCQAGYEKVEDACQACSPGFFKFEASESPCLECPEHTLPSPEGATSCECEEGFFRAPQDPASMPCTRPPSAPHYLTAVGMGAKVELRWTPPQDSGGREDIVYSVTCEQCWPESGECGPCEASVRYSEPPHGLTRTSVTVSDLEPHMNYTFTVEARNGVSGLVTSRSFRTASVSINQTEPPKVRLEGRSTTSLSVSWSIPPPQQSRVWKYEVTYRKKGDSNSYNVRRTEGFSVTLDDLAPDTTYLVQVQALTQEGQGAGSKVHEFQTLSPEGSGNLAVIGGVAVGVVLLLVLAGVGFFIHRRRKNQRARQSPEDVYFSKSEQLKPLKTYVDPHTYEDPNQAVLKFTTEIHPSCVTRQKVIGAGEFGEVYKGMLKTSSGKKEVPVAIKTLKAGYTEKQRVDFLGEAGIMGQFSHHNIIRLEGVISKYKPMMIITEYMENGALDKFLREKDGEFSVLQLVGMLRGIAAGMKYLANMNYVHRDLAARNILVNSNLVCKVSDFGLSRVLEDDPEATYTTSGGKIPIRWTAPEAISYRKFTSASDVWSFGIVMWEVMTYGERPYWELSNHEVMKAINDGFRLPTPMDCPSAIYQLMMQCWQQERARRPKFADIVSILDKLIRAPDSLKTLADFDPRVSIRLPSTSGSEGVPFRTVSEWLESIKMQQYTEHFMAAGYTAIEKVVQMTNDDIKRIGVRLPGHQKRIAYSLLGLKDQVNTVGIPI

[2] = molecular target: Glycogen synthase kinase-3 alpha (Homo sapiens, UniProt P49840); assay type: functional;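 also: GSK3A result taken from a broad kinome-wide kinase panel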
Chain of Glycogen synthase kinase-3 alpha (P49840 whole entry): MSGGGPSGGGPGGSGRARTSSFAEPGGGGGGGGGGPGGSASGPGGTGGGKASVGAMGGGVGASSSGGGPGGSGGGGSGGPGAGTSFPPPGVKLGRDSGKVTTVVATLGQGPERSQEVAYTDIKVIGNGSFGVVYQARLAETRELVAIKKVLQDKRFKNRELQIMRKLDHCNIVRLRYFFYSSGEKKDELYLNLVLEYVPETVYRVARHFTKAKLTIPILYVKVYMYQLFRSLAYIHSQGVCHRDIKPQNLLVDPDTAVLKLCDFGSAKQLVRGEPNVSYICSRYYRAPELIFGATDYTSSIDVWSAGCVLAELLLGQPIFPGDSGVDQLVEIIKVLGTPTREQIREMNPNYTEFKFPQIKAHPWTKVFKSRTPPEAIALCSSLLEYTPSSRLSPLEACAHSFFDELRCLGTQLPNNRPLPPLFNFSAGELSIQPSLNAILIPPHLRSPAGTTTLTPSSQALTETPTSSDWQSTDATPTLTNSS

[3] = molecular target: T1, High affinity choline transporter 1 (Homo sapiens, UniProt Q9GZV3); experiment: human choline transporter potentiators, potency – cell-based, 10-point CRC, membrane potential dye, dose response (AID 602376); assay type: functional
T1 sequence (Q9GZV3 whole entry): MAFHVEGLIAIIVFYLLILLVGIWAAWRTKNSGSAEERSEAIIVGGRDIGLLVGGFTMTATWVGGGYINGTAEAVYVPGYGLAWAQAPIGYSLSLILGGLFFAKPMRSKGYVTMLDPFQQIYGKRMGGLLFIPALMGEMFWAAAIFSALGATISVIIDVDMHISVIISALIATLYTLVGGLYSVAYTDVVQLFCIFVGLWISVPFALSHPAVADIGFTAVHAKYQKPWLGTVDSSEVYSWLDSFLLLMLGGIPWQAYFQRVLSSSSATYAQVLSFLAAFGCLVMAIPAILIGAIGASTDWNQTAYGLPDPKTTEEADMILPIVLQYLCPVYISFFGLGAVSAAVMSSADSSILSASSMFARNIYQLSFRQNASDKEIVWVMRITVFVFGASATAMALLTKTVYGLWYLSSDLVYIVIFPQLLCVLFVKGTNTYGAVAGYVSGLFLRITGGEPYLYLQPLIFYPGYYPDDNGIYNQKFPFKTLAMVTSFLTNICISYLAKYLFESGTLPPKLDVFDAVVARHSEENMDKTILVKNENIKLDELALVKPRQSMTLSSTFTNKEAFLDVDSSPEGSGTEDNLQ

H9c2 = experiment: cells; assay type: functional, cell-based; conditions: Rattus norvegicus, H9c2, Myocardium;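 also: confirmatory concentration-response retest of ultra-high-throughput screening hits for modulation of myocardial damage; cell death induced by hydrogen peroxide oxidative stress; compound pretreatment for 60 min then peroxide exposure for 2 h; potency is for protecting the cells against peroxide damage rather than for killing them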
[4] = molecular target: T2, Sentrin-specific protease 7 (Homo sapiens, UniProt Q9BQF6); experiment: inhibition of human SENP7 cleavage activity – biochemical, luminescence, SAR follow-up (AID 504497); assay type: functional
T2 sequence (Q9BQF6 whole entry): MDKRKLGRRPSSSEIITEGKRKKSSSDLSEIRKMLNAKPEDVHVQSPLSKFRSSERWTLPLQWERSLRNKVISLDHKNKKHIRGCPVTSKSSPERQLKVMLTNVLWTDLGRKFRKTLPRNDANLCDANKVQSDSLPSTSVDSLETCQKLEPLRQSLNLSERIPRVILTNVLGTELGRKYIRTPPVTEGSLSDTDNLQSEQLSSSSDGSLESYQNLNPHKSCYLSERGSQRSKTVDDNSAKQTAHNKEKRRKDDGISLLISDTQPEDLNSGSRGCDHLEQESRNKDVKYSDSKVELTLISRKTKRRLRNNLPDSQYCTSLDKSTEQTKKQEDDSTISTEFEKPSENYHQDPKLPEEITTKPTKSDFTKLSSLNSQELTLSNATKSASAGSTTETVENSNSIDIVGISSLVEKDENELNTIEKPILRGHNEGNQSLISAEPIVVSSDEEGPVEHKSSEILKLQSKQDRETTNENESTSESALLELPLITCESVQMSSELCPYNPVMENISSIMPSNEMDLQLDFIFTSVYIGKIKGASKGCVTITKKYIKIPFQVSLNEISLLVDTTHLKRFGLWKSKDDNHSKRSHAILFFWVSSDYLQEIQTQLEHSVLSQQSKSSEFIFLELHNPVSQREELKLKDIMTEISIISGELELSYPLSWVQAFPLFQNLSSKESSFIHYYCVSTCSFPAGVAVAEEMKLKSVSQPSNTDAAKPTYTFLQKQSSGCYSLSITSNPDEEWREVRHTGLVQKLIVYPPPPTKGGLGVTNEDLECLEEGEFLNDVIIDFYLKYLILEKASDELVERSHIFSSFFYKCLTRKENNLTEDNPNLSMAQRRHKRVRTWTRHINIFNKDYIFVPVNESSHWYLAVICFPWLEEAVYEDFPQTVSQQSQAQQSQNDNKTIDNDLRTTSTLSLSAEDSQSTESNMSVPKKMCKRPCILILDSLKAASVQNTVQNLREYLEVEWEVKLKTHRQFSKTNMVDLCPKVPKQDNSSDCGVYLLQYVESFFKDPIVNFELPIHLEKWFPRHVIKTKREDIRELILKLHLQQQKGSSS

[5] = molecular target: T3, Sentrin-specific protease 8 (Homo sapiens, UniProt Q96LD8); experiment: inhibition of sentrin protease 8 – biochemical, luminescence, set 2, SAR follow-up (AID 588601); assay type: functional
T3 sequence (Q96LD8 whole entry): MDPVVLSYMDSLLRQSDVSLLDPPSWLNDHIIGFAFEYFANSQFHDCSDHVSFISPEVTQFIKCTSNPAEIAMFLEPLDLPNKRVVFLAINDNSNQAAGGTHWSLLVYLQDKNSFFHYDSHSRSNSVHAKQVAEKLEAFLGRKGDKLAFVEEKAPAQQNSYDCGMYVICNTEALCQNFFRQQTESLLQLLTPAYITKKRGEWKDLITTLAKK

[6] = molecular target: T3, Sentrin-specific protease 8; experiment: inhibition of human SENP8 cleavage activity – biochemical, luminescence, SAR follow-up (AID 504501); assay type: functional
[7] = molecular target: T4, Sentrin-specific protease 6 (Homo sapiens, UniProt Q9GZR1); experiment: SAR Analysis of small molecule inhibitors of Sentrin-specific protease 6 (SENP6) using a Luminescent assay. [Related pubchem assays (depositor defined):AID2582, AID2599]; assay type: functional
T4 sequence (Q9GZR1 whole entry): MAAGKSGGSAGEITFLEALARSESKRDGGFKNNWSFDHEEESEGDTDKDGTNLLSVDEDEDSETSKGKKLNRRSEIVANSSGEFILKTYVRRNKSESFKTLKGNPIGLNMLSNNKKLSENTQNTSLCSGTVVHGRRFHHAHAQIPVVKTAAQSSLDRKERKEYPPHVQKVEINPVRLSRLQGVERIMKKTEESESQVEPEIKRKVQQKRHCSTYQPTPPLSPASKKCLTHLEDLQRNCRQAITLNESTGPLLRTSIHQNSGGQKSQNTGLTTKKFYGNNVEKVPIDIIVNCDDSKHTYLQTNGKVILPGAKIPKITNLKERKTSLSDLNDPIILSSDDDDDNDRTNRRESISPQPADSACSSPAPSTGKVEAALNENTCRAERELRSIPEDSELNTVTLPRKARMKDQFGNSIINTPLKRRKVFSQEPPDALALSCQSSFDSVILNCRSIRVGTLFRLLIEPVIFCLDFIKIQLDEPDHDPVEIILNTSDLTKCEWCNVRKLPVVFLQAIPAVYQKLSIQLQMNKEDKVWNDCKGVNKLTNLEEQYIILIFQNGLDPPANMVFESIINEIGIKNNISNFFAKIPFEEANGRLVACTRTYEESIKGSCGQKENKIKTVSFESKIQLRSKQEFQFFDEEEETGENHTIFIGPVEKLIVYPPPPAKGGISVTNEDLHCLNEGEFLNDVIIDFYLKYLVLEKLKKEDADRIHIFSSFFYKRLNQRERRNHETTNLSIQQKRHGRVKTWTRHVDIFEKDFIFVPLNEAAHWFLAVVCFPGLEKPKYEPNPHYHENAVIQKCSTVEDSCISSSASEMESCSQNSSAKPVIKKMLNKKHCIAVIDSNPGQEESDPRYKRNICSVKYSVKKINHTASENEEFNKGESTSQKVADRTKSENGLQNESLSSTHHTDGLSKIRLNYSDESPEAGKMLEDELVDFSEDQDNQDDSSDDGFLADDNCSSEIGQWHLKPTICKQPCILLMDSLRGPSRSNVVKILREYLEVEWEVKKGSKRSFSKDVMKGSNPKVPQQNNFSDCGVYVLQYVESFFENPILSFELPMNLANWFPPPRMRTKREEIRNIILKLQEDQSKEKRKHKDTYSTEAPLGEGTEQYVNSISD

[8] = molecular target: T4, Sentrin-specific protease 6; experiment: inhibition of human SENP6 catalytic domain – biochemical, luminescence, set 2, SAR follow-up (AID 588598); assay type: functional
[9] = molecular target: T2, Sentrin-specific protease 7; experiment: inhibition of human SENP7 cleavage activity – biochemical, luminescence, set 2, SAR follow-up (AID 588600); assay type: functional
Caspase-3 [10] = molecular target: T5, Caspase-3 (Homo sapiens, UniProt P42574); experiment: inhibition of recombinant caspase-3 activity – biochemical, luminescence, set 2, selectivity assay for SENP protease inhibitor project, SAR follow-up (AID 588599); assay type: functional
T5 sequence (P42574 whole entry): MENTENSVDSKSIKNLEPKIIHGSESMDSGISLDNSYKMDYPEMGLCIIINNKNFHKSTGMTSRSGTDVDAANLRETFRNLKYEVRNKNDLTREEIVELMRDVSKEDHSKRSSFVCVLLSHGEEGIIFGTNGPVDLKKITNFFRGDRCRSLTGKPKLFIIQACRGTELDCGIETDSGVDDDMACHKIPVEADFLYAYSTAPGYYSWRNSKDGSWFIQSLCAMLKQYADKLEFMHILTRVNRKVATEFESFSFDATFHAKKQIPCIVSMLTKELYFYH

Caspase-3 [11] = molecular target: T5, Caspase-3; experiment: SAR Analysis of small molecule inhibitors of Sentrin-specific proteases (SENPs) using a Caspase-3 Selectivity assay. [Related pubchem assays (depositor defined):AID2540, AID2599, AID434973, AID489001]; assay type: functional

SMILES: O=C(Cn1c(COc2ccccc2)nc2ccccc21)Nc1cc(Cl)c(Cl)cc1Cl
EC50 [1]: 15.7 µM (active)

Ki (Ephrin type-A receptor 2): 2 µM (active)
Ki [2]: 7.94 µM (active)
SMILES: Cc1ccc(NC(=O)c2cnn3c(-c4ccccc4)ccnc23)cc1C

SMILES: COC(=O)c1ccc(C(NC(=O)OCc2ccccc2)/C(C)=C/[C@@H](C)C(=O)NCc2ccc(OC)c(OC)c2)cc1 (stereo partly drawn)
EC50 [3]: 12.3 µM (active)
IC50 (H9c2): 10.6 µM (active)

IC50 [4]: 1.1 µM (active)
IC50 [7]: 1.4 µM (active)
IC50 [8]: 1.26 µM (active)
IC50 [9]: 1.35 µM (active)
IC50 (Caspase-3 [10]): 1.17 µM (active)
IC50 (Caspase-3 [11]): 1.4 µM (active)
SMILES: COc1ccc(/C=C/c2noc(-c3ccccc3O)n2)cc1
IC50 [5]: 1.19 µM (active)
IC50 [6]: 1.3 µM (active)
